Legend:
Type in all cases: in vivo
Carpophilus truncatus [1] = experiment: Field experiment of pheromone lure septa in an almond orchard (Example 3), C. truncatus catches; settings: septa in bucket traps with co-attractant solution (45% ethanol, isopentyl alcohol) and Dichlorvos strip; 10 replicates; 6 weeks, samples fortnightly; p<0.001
Description: A field experiment was designed to test the attractancy of the previously described C. truncatus Pheromone 2 under field conditions and the pheromonal (attractant) activity of newly identified Pheromone 3. […] All pheromones were tested together with a co-attractant mixture in the form of an aqueous ethanol and isopentyl alcohol solution, which acts synergistically to elicit a strong behavioural response in C. truncatus.
Pheromone test lures were loaded on white Precision Seal® rubber septa (8 mm OD, Sigma Aldrich product code: Z553913) with butylated hydroxytoluene used an antioxidant. The quantities of individual compounds applied on the septa were determined by SPME-GC-MS analyses of test septa at days 1 and 3 to produce the two pheromones in approximately equal ratios. The quantity of antioxidant was chosen based on the existing literature as 10% of the ratio of the dominant pheromone (Table 2). Hexane dilutions of the neat pheromones were prepared, and desired quantities loaded onto the septa. […]
The field trial was carried out from December 2021 in a commercial almond orchard located near Mildura, Victoria, Australia. […] Beetles present in different traps were identified and counted under a stereomicroscope. […]
Field data were analysed using a Generalized Linear Mixed Model (GLMM) fitted with a negative binomial distribution using the glmmTMB package (Brooks et al. 2019). […]

Carpophilus truncatus [2] = experiment: Two-week field trial of lure treatments (Example 4), C. truncatus catches; settings: 20 repeats per treatment, with co-attractant, high beetle populations
Description: (§1) A short trial was carried out over two weeks. Treatments were randomised and replicated in 10 tree rows with approximately 50 m spacing between traps (10 rows×2 treatments—20 repeats per treatment; 3 treatments of 20 repeats is 60 traps used). The treatments are shown in Table 3: Data was analysed in a similar way to Example 3 using GLMM with trap catches as response variable, lure treatment as fixed factor and row and column as random (spatial features). Turkey's adjusted post hoc tests for multiple comparisons of a family of three estimates. The results of the mixed model are: Wald χ2=[…], p=2.64 10^−14.

[3] = tested on: other Carpophilus species; experiment: Two-week field trial of lure treatments (Example 4), catches of other Carpophilus species; settings: 20 repeats per treatment, with co-attractant
Description: as §1

| Compound | C. truncatus beetle catches (Carpophilus truncatus [1]) | C. truncatus beetles caught (Carpophilus truncatus [2]) | Other Carpophilus species beetles caught [3] |
| --- | --- | --- | --- |
| C/C=C(C)/C=C(C)/C=C(C)/C=C/CC [Phero 2, (E,E,E,E)-3,5,7-trimethyl-2,4,6,8-undecatetraene] | caught significantly more beetles than the commercial tri-species septa | – | – |
| CCCCCCCCCCCCCC=O [Phero 3, tetradecanal] | – | caught significantly less C. truncatus and other Carpophilus species beetles than Phero 2 and Phero 2+Phero 3 | caught significantly less C. truncatus and other Carpophilus species beetles than Phero 2 and Phero 2+Phero 3 |

From patent publication US20260114446A1, “Compositions, Methods and Devices for Control and Monitoring Insects” (Agriculture Victoria Services Pty Ltd, priority 2023, published 2026)
